Consider 22 molecules from patent US20100056524A1, “Compound” (priority 2008, published 2010).

Each structure is given as a SMILES string. Where a name gives a salt, the structure may show the parent alone. Some results are limits rather than exact numbers.

This experiment addresses T1, TBK1 (Homo sapiens, UniProt Q9UHD2).
T1 construct: All protein kinases were of human origin and encoded full length proteins, unless indicated otherwise; His6; made in house; host or cells: insect Sf21 cells
T1 sequence (Q9UHD2 1-729): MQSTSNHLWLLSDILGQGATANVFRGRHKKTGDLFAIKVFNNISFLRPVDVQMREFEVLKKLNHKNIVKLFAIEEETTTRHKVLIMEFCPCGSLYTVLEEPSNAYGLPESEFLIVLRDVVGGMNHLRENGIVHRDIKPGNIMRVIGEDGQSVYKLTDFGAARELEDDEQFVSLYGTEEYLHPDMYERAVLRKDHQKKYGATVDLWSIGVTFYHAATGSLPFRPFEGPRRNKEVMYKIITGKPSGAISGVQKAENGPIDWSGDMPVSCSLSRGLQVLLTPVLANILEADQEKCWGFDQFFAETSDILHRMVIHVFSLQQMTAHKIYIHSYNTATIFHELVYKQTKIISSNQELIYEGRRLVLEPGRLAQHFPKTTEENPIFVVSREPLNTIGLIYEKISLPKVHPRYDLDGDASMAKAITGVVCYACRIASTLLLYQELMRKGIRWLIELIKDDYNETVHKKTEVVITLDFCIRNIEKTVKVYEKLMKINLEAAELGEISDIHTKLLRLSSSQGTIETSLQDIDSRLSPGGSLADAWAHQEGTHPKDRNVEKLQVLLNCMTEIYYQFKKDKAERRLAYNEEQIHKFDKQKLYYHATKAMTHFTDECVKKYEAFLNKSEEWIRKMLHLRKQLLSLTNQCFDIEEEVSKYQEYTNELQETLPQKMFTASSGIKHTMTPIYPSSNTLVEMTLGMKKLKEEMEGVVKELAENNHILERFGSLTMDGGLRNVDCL
The experiment can be described thus: TBK1 protein kinase assay ([γ-33P]ATP, P81 filterplates). The experiment is classed as biochemical. Particulars: 50 μM ATP; read-out: Potency (TBK1 IC50 potency score). The text has this: All protein kinases were of human origin and encoded full length proteins, unless indicated otherwise. They were either expressed as glutathione S-transferase (GST) fusion proteins in Escherichia Coli or as hexahistidine (His6)-tagged proteins in insect Sf21 cells. GST fusion proteins were purified by affinity chromatography on glutathione-Sepharose, and His6-tagged proteins on nickel/nitriloacetate-agarose. The procedures for expressing some of the protein kinases used herein have been detailed previously.^8,9 The following sections outline the DNA vectors synthesised and the procedures used to express and purifying protein kinases that have not been reported previously.
The following kinases were expressed in Sf21 cells: Aurora B and Aurora C, extra-cellular signal-regulated kinase 8 (ERK8), microtubule affinity regulating kinase 3 (MARK3), protein kinase Bα[118-480][S473D], protein kinase Bβ (PKBβ[120-481][S474D], 3-phosphoinositide-dependent protein kinase-1 [52-556]
Assays were performed for 30 min using Multidrop Micro reagent dispensers (Thermo Electron Corporation, Waltham, Mass. 02454, USA) in a 96-well format. The concentration of magnesium acetate in the assays was 10 mM and the [γ-33P] ATP (800 cpm/pmol) was used at 5, 20 or 50 μM as indicated, in order to be at or below the Km for ATP for each enzyme. Protein kinases assayed at 5 μM ATP were: —ERK1, ERK8, PKBα, MARK3, Aurora C. Protein kinases assayed at 20 μM ATP were: —JNK1, PDK1, CHK1, CHK2, CDK2 and Aurora B. Protein kinases assayed at 50 μM ATP were: —MNK2, IKKepsilon and TBK1.
The assays were initiated with MgATP, stopped by addition of 5 μl of 0.5 M orthophosphoric acid and spotted on to P81 filterplates using a unifilter harvester (PerkinElmer, Boston, Mass. 02118, USA). The IC50 values of inhibitors were determined after carrying out assays at 10 different concentrations of each compound.
ERK1 and ERK8 were both assayed against myelin basic protein (MBP, 0.33 mg/ml). MARK3 was assayed against the peptide […] (300 μM), MNK2 against the eIF4E protein (0.5 mg/ml). PKBβ was assayed against the peptide […] (30 μM). TBK1 were assayed against ([…]) (300 μM). The substrates used for other protein kinases were described previously.^8,9
Unless stated otherwise, enzymes were diluted in 50 mM Tris/HCl pH 7.5, 0.1 mM EGTA, 1 mg/ml BSA, 0.1% (v/v) 2-mercaptoethanol and assayed in 50 mM Tris/HCl pH 7.5, 0.1 mM EGTA, 0.1% (v/v) 2-mercaptoethanol.

What is called IC50 is the point on the concentration scale where inhibition reaches its midpoint. As for `CN(C)CCN(C)c1ccc(Nc2ncc(C3CC3)c(NCCCNC(=O)C3CCC3)n2)cn1` [Example 100, Cyclobutanecarboxylic acid [3-(5-cyclopropyl-2-{6-[(2-dimethylamino-ethyl)-methyl-amino]-pyridin-3-ylamino}-pyrimidin-4-ylamino)-propyl]-amide], the IC50 is less than 0.1 µM.

On to `CN(C)C1CCN(C(=O)c2cccc(Nc3ncc(C4CC4)c(NCCCNC(=O)C4CCC4)n3)c2)CC1` [Example 81, Cyclobutanecarboxylic acid (3-{5-cyclopropyl-2-[3-(4-dimethylamino-piperidine-1-carbonyl)-phenylamino]-pyrimidin-4-ylamino}-propyl)-amide], for which the IC50 was less than 0.1 µM.

For the molecule `CN1CCN(C(=O)c2cccc(Nc3ncc(C4CC4)c(NCCCNC(=O)c4cccs4)n3)c2)CC1` [Example 45, Thiophene-2-carboxylic acid (3-{5-cyclopropyl-2-[3-(4-methyl-piperazine-1-carbonyl)-phenylamino]-pyrimidin-4-ylamino}-propyl)-amide], the IC50 was 0.1 to 1 µM. As for `O=C(NCCCNc1nc(Nc2ccc(C3CC3)nc2)ncc1C1CC1)C1CCC1` [Example 208, Cyclobutanecarboxylic acid {3-[5-cyclopropyl-2-(6-cyclopropyl-pyridin-3-ylamino)-pyrimidin-4-ylamino]-propyl}-amide], the half-maximal inhibitory concentration (IC50) was less than 0.1 µM. The figure for `CN1CCC(c2ccc(Nc3ncc(C4CC4)c(NCCCNC(=O)C4CCC4)n3)cc2)CC1` [Example 171, Cyclobutanecarboxylic acid (3-{5-cyclopropyl-2-[4-(1-methyl-piperidin-4-yl)-phenylamino]-pyrimidin-4-ylamino}-propyl)-amide] is less than 0.1 µM; for `CN1CCN(C(=O)c2cccc(Nc3ncc(C4CC4)c(NCCCNC(=O)C4CCC4)n3)c2)CC1` [Example 77, Cyclobutanecarboxylic acid (3-{5-cyclopropyl-2-[3-(4-methyl-piperazine-1-carbonyl)-phenylamino]-pyrimidin-4-ylamino}-propyl)-amide] it is less than 0.1 µM.

`O=C(O)c1cccc(Nc2ncc(C3CC3)c(NCCCNC(=O)c3cccs3)n2)c1` [Example 34, 3-(5-Cyclopropyl-4-{3-[(thiophene-2-carbonyl)-amino]-propylamino}-pyrimidin-2-ylamino)-benzoic acid trifluoroacetic acid salt]: the IC50 is 0.1 to 1 µM. With `Cn1cc2ccc(Nc3ncc(C4CC4)c(NCCCNC(=O)C4CCC4)n3)cc2n1` [Example 138, Cyclobutanecarboxylic acid {3-[5-cyclopropyl-2-(2-methyl-2H-indazol-6-ylamino)-pyrimidin-4-ylamino]-propyl}-amide] the figure was less than 0.1 µM; with `Cn1cc(Nc2ncc(C3CC3)c(NCCCNC(=O)C3CCC3)n2)cn1` [Example 153, Cyclobutanecarboxylic acid {3-[5-cyclopropyl-2-(1-methyl-1H-pyrazol-4-ylamino)-pyrimidin-4-ylamino]-propyl}-amide], less than 0.1 µM; with `CN(Cc1cccc(Nc2ncc(C3CC3)c(NCCCNC(=O)C3CCC3)n2)c1)C1CCCC1` [Example 132, Cyclobutanecarboxylic acid [3-(2-{3-[(cyclopentyl-methyl-amino)-methyl]-phenylamino}-5-cyclopropyl-pyrimidin-4-ylamino)-propyl]-amide], less than 0.1 µM. The figure for `CN(C)[C@@H]1CCN(Cc2ccc(Nc3ncc(C4CC4)c(NCCCNC(=O)C4CCC4)n3)cn2)C1` [Example 159, Cyclobutanecarboxylic acid (3-{5-cyclopropyl-2-[6-((R)-3-dimethylamino-pyrrolidin-1-ylmethyl)-pyridin-3-ylamino]-pyrimidin-4-ylamino}-propyl)-amide] is less than 0.1 µM; for `O=C(NCCCNc1nc(Nc2cccc(C(=O)N3CCNCC3)c2)ncc1C1CC1)C1CCC1` [Example 142, Cyclobutanecarboxylic acid (3-{5-cyclopropyl-2-[3-(piperazine-1-carbonyl)-phenylamino]-pyrimidin-4-ylamino}-propyl)-amide. Hydrochloride] it is less than 0.1 µM.

For the molecule `O=C(NCCCNc1nc(Nc2cccc(-c3cnco3)c2)ncc1C1CC1)C1CCC1` [Example 87, Cyclobutanecarboxylic acid {3-[5-cyclopropyl-2-(3-oxazol-5-yl-phenylamino)-pyrimidin-4-ylamino]-propyl}-amide], the half-inhibitory concentration (IC50) is less than 0.1 µM. On to `CC(C)(C)N1CCC(n2cc(Nc3ncc(C4CC4)c(NCCCNC(=O)C4CCC4)n3)cn2)CC1` [Example 205, Cyclobutanecarboxylic acid (3-{2-[1-(1-tert-butyl-piperidin-4-yl)-1H-pyrazol-4-ylamino]-5-cyclopropyl-pyrimidin-4-ylamino}-propyl)-amide], for which the 50% inhibitory concentration (IC50) was less than 0.1 µM. Turning to `O=C(NCCCNc1nc(Nc2cccc(F)c2)ncc1C1CC1)C1CC1` [Example 25, Cyclopropanecarboxylic acid {3-[5-cyclopropyl-2-(3-fluoro-phenylamino)-pyrimidin-4-ylamino]-propyl}-amide], the IC50 lay in the range of 0.1 to 1 µM. The figure for `Cc1oncc1C(=O)NCCCNc1nc(Nc2cccc(F)c2)ncc1C1CC1` [Example 8, 5-Methyl-isoxazole-4-carboxylic acid{3-[5-cyclopropyl-2-(3-fluoro-phenylamino)-pyrimidin-4-ylamino]-propyl}-amide trifluoroacetic acid salt] is less than 0.1 µM; for `CNc1ccc(Nc2ncc(C3CC3)c(NCCCNC(=O)C3CCC3)n2)cn1` [Example 204, Cyclobutanecarboxylic acid {3-[5-cyclopropyl-2-(6-methylamino-pyridin-3-ylamino)-pyrimidin-4-ylamino]-propyl}-amide] it is less than 0.1 µM.

On to `O=C(NCCCNc1nc(Nc2ccc(F)cc2)ncc1C1CC1)c1cccs1` [Example 58, Thiophene-2-carboxylic acid {3-[5-cyclopropyl-2-(4-fluoro-phenylamino)-pyrimidin-4-ylamino]-propyl}-amide], for which the IC50 lay within 0.1 to 1 µM.

In the case of `CN(CCCNc1nc(Nc2cccc(F)c2)ncc1C1CC1)C(=O)C1CCC1` [Example 107, Cyclobutanecarboxylic acid {3-[5-cyclopropyl-2-(3-fluoro-phenylamino)-pyrimidin-4-ylamino]-propyl}-methyl-amide], the concentration for half-maximal inhibition (IC50) is less than 0.1 µM.

Take `Cc1nc2cc(Nc3ncc(C4CC4)c(NCCCNC(=O)c4cccs4)n3)ccc2s1` [Example 60, Thiophene-2-carboxylic acid {3-[5-cyclopropyl-2-(2-methyl-benzothiazol-5-ylamino)-pyrimidin-4-ylamino]-propyl}-amide]: the IC50 was in the range of 0.1 to 1 µM. As to `O=C(NCCCNc1nc(Nc2ccc3[nH]c(C(F)(F)F)nc3c2)ncc1C1CC1)c1cccs1` [Example 62, Thiophene-2-carboxylic acid {3-[5-cyclopropyl-2-(2-trifluoromethyl-1H-benzimidazol-5-ylamino)-pyrimidin-4-ylamino]-propyl}-amide], the half-maximal inhibitory concentration (IC50) lay within 1 to 10 µM.

As to `CN1CCN(Cc2ccc(Nc3ncc(C4CC4)c(NCCCNC(=O)C4CCC4)n3)cn2)CC1` [Example 147, Cyclobutanecarboxylic acid (3-{5-cyclopropyl-2-[6-(4-methyl-piperazin-1-ylmethyl)-pyridin-3-ylamino]-pyrimidin-4-ylamino}-propyl)-amide], the half-inhibitory concentration (IC50) is less than 0.1 µM.
